Entries after “also recorded” stand apart in the source; their conditions may differ.
How the values were obtained:
experimental thrombi = conditions: literature studies of exogenous therapy on formed or established thrombus; cited from earlier work
normal (wildtype) mice = assay: mouse model of thrombus resolution (vena caval ligation), normal mice; format: in vivo; conditions: 25 mg/kg body weight by daily injection, versus saline, FIG. 8
Description: In an effort to develop pharmacological and molecular therapy to accelerate thrombus resolution, the function of the p53 gene was studied in an in vivo model of thrombus resolution. In this mouse model (vena caval ligation) the thrombus shrinks between day 4 and day 12 by about 50% as defined by change in thrombus weight. It was noted that the expression of the p53 protein is increased in thrombus resolution.
In order to determine whether augmentation of normal p53 function could accelerate thombus resolution wildtype mice were treated with the p53 activator quinacrine (25 mg/kg body weight, by daily injection). Quinacrine is known to increase p53 levels by stabilizing the p53 protein and preventing its normal degradation inside cells.
(§1) The well-established rodent model of thrombus resolution was used to define a role for the p53 gene in this process. In this model, a mouse is anesthetized, the abdomen is opened with standard sterile surgical technique and the vena cava (the largest abdominal vein) is ligated in the abdomen with a suture immediately below the level of the renal veins.
The weight of the thrombus decreases with time, and this change in weight reflects the thrombus resolution process in this model. […]

[1] = system: mice lacking the p53 gene; assay: mouse model of thrombus resolution (vena caval ligation), mice lacking the p53 gene; format: in vivo; conditions: quinacrine versus control, FIG. 9, last two columns
Description: To determine whether the beneficial effect on thrombus resolution of quinacrine was due to activation of the p53 gene and not some other unknown effect of quinacrine on thrombus resolution the quinacrine experiment was repeated in mice that lack p53 (FIG. 2).
as §1
To determine if pharmacologic activation of the p53 gene beyond its usual activation by thrombus resolution might accelerate thrombus resolution, normal mice were treated with the p53 activator quinacrine (25 mg/kg body weight, by daily injection) or saline as a control, and then subjected to vena caval ligation as described above. […] To determine if this effect of quinacrine was actually due to p53 activation, this experiment was repeated in animals lacking the p53 gene.

Molecule | thrombus resolution in experimental animal models (experimental thrombi) | thrombus resolution as determined by thrombus weight on day 12 (normal (wildtype) mice) | thrombus resolution / thrombus size at day 12 [1]
low molecular weight heparin | no improvement in the resolution of an established thrombus |  | 
MCP-1: cytokine macrophage chemotactic factor | does improve experimental thrombus resolution |  | 
CCN(CC)CCCC(C)Nc1c2ccc(Cl)cc2nc2ccc(OC)cc12 (stereo not shown) [quinacrine] |  | improved thrombus resolution; also recorded: decreased thrombus weight | absent; also recorded: no difference in thrombus size
